In patent publication US12077557B2, “Puromycin-based probes and methods of use thereof” (The Regents of the University of California, priority 2018, dated 2024):

Key:
[1] = tested on: HeLa cells; assay: Immunostaining and confocal fluorescence imaging of HeLa cells treated with puromycin-based probes; type: cell-based, human; conditions: for change in fluorescence intensity with H2O2 pretreatment: H2O2 50 μM 2 h pretreatment; for change of immunofluorescence intensity with incubation time: basal analyte level; for change in immunofluorescence intensity with cysteine or GSH incubation: 1 μM compound and cysteine or GSH 100 μM, 4 h; for change in fluorescence intensity with paraquat co-incubation: 1 μM compound, paraquat 1 mM; for green immunofluorescence at 0.5 h: basal
[2] = tested on: A431 cells; assay: Immunostaining and confocal imaging of A431 cells with stimulation or inhibition of H2O2 or NO production; type: cell-based, human; conditions: for change in fluorescence intensity with EGF stimulation: EGF 100 ng/mL 20, 40, 60 min, then 1 μM compound 4 h
Text: Human cervical epithelial carcinoma (HeLa), human epidermoid carcinoma (A-431) and human breast carcinoma (MDA-MB-231 and MDA-MB-468) were maintained in DMEM medium (high glucose) supplemented with GlutaMAX and 10 vol % FBS. Human breast carcinoma (MCF-7) was maintained in DMEM medium (high glucose) supplemented with GlutaMAX, 10 vol % FBS, 1 vol % non-essential amino acids and 1% sodium pyruvate. Human breast carcinoma (HS 578T) was maintained in DMEM medium (high glucose) supplemented with GlutaMAX, 10 vol % FBS, 1% sodium pyruvate and insulin (10 μg/mL). Human non-tumorigenic breast epithelial cells (MCF-10A) were maintained in DMEM/F12 (with L-glutamate, HEPES and phenol red) supplemented with 5 vol % horse serum, EGF (20 ng/mL), hydrocortisone ([…]), cholera toxin (100 ng/mL), insulin (10 μg/mL) and 1 vol % penicillin/streptomycin. Human normal breast epithelial cells (HS 578Bst) were maintained in ATCC Hybri-Care Medium (No. 46-X) supplemented with sodium bicarbonate ([…]), EGF (30 ng/mL) and 10 vol % FBS. All cells were incubated in 5% CO2 humidified air, and subcultured when 80% confluence was reached. For cell-imaging experiments, the cells were plated on 8-well Lab Tek borosilicate chambered coverglass slides (Nunc) or 24-well plates with 12 mm coverslips, and allowed to grow to ca. 60% confluency before performing the cell imaging experiments.
Cells were incubated with the compound (1 μM) for indicated time intervals. The cells were then washed three-times by PBS solution and fixed by 4% paraformaldehyde at room temperature for 10 min. The cells were washed by PBS solution and PBS solution with 0.1 vol %-Triton X-100, followed by incubation with α-puromycin antibody [3RH11] (Kerafast; 1:500, v/v) in PBS solution containing 10 vol % FBS and 0.1 vol % Triton X-100 at 37° C. for 30 min. Subsequently, the cells were washed by PBS solution and PBS solution with 0.1 vol %-Triton X-100, and stained by α-mouse secondary antibody-Alexa Fluor 488 (1:100, v/v) in PBS solution containing 10 vol % FBS and 0.1 vol % Triton X-100 at 37° C. for 30 min. The cells were then washed by PBS solution and stained by Hoechst 33342 at room temperature for 10 min. After that, the cells were washed three-times by PBS solution and imaged by confocal fluorescence microscopy.
EGF stimulation was carried out by pretreatment of A431 cells by EGF (100 ng/mL) for 20, 40 and 60 min, then washed by PBS and incubated with Peroxymycin-1 (1 μM) for 4 h.
For the study with L-NAME, A431 cells were pretreated with L-NAME (100 μM) for 25 min, then washed by PBS and incubated with EGF (100 ng/mL) for 40 min, followed by washing and incubation with Peroxymycin-1 (1 μM) for 4 h.
For the DPI experiment, the cells were pretreated with a mixture of DPI (5 μM) and EGF (100 ng/mL) for 40 min, followed by incubation with a mixture of DPI (5 μM) and Peroxymycin-1 (1 μM) for 4 h.
For the inhibition of H2O2 production by gp91 Tat peptide, the cells were pretreated with gp91 Tat peptide (100 μM) for 30 min, then incubated with a mixture of gp91 Tat peptide (100 μM) and Peroxymycin-1 (1 μM) for 4 h.
Confocal fluorescence cell imaging was performed with a Zeiss laser scanning microscope 710 with a 40× water-immersion objective lens using Zen 2009 software (Carl Zeiss). Hoechst 33342 was excited with a 405 nm diode laser, and emission was collected using a META detector between 450 and 500 nm. Alexa Fluor 488 was excited with 488 nm with an Ar laser, and emission was collected using a META detector between 500 and 625 nm. Alexa Fluor 647 was excited with a 633 nm HeNe laser, and emission was collected using a META detector between 638 and 647 nm. PBS solution was used as the imaging buffer for all the confocal experiments. Image analysis was performed using ImageJ. A region of interest (ROI) was created around a single cell, and cellular fluorescence intensity was measured. […]

[3] = LC-MS study of reaction of probe with GSH and other substrates; conditions: 25° C.; probe 0.3 mM, GSH 1.0 mM
Method: (§1) MilliQ water was used in all experiments unless otherwise stated. Reaction kinetics of the probes with species of interest and other substrates were investigated by LC-MS (Agilent Technology 6130, Quadrupole LC/MS) coupled with photodiode array for detection (X=275 nm). Confocal microscopy images were recorded on a Zeiss laser scanning microscope 710 with a 40× water-immersion objective lens using Zen 2009 software (Carl Zeiss).
(§2) Peroxymycin-1 and Ctrl-Peroxymycin-1 (0.3 mM), respectively, were dissolved in phosphate buffer (20 mM, pH 7.4)-methanol solution mixture (2:1, v/v) with 3 vol % DMSO and allowed to stand at room temperature. At predetermined time intervals, an aliquot of the solution mixture was taken for LC-MS analysis. Separation was achieved by gradient elution from 5-100% MeOH in water (constant 0.1 vol % formic acid) over 8 min, isocratic with 100% MeOH from 8 to 12 min and returned to initial conditions and equilibrated for 3 minutes. The LC chromatograms were recorded by monitoring absorption at 275 nm.

[4] = LC-MS study of reaction of probe with H2S and other substrates; conditions: 25° C.; probe 0.3 mM, H2S 1 mM
Method: as §1, §2

[5] = tested on: HeLa cells; assay: Confocal fluorescence imaging of HeLa cells treated with fluorescent H2O2 probe PF2; type: cell-based, human
Text: (§3) Human cervical epithelial carcinoma (HeLa), human epidermoid carcinoma (A-431) and human breast carcinoma (MDA-MB-231 and MDA-MB-468) were maintained in DMEM medium (high glucose) supplemented with GlutaMAX and 10 vol % FBS. Human breast carcinoma (MCF-7) was maintained in DMEM medium (high glucose) supplemented with GlutaMAX, 10 vol % FBS, 1 vol % non-essential amino acids and 1% sodium pyruvate. Human breast carcinoma (HS 578T) was maintained in DMEM medium (high glucose) supplemented with GlutaMAX, 10 vol % FBS, 1% sodium pyruvate and insulin (10 μg/mL). Human non-tumorigenic breast epithelial cells (MCF-10A) were maintained in DMEM/F12 (with L-glutamate, HEPES and phenol red) supplemented with 5 vol % horse serum, EGF (20 ng/mL), hydrocortisone (0.5 mg/mL), cholera toxin (100 ng/mL), insulin (10 μg/mL) and 1 vol % penicillin/streptomycin. […]
(§4) Confocal fluorescence cell imaging was performed with a Zeiss laser scanning microscope 710 with a 40× water-immersion objective lens using Zen 2009 software (Carl Zeiss). […] A region of interest (ROI) was created around a single cell, and cellular fluorescence intensity was measured. The reported cellular fluorescence intensity was determined by averaging the measured intensity of 5 different cells from at least 3 different images in triplicate experiments. […]

[6] = Stability of probes in phosphate buffer-methanol mixture by LC-MS; type: physicochemical
Method: as §1, §2

[7] = LC-MS study of reaction of probe with H2O2 and other ROS; conditions: 25° C.; probe 0.3 mM, H2O2 0.1 mM
Method: as §1, §2
For the study of the reaction with H2O2, Peroxymycin-1 and Ctrl-Peroxymycin-1 (0.3 mm), respectively, were dissolved in phosphate buffer (20 mM, pH 7.4)-methanol solution mixture (2:1, v/v) with 3 vol % DMSO. H2O2 was then added to the solution mixture (final concentration=0.1 mM), and the reaction mixture was allowed to stand at room temperature. […]

[8] = tested on: panel of related cancer and non-tumorigenic breast cell lines; assay: H2O2 profiling across a panel of cancer and non-tumorigenic breast cell lines; type: cell-based, human; conditions: 1 μM, 4 h; MDA-MB-231, HS 578T, MDA-MB-468, MCF-7, MCF-10A, HS 578Bst
Text: as §3, with “μg/mL).” for “μg/mL). Human non-tumorigenic breast epithelial cells (MCF-10A) were maintained in DMEM/F12 (with L-glutamate, HEPES and phenol red) supplemented with 5 vol % horse serum, EGF (20 ng/mL), hydrocortisone (0.5 mg/mL), cholera toxin (100 ng/mL), insulin (10 μg/mL) and 1 vol % penicillin/streptomycin.”
Cells were incubated with the compound (1 μM) for indicated time intervals. […] After that, the cells were washed three-times by PBS solution and imaged by confocal fluorescence microscopy.
as §4

[9] = H2S 100 μM 30 min, then 1 μM compound 4 h

COc1ccc(CC(NC(=O)OCCc2ccc(B3OC(C)(C)C(C)(C)O3)cc2)C(=O)NC2C(CO)OC(n3cnc4c(N(C)C)ncnc43)C2O)cc1 (stereo not shown) [Ctrl-Peroxymycin-1]
change in fluorescence intensity with H2O2 pretreatment ([1]; then 1 μM compound 4 h): lack of signal
change in fluorescence intensity with EGF stimulation [2]: no observable differences in immunofluorescence

COc1ccc(CC(NC(=O)OCCSSCCOC(C)=O)C(=O)NC2C(CO)OC(n3cnc4c(N(C)C)ncnc43)C2O)cc1 (stereo not shown) [GSH-Puro-1]
pseudo-first-order rate constant of the reaction with GSH [3]: 9.4e-05 s⁻¹
relative fluorescence intensity compared to cells treated by puromycin ([1]; 1 μM, 4 h incubation): 69%
relative fluorescence intensity compared to cells treated by puromycin ([1]; 1 μM, 6 h incubation): 79%
change of immunofluorescence intensity with incubation time ([1]; 1 μM, HeLa cells): Time-dependent increase in immunofluorescence intensity
fluorescence with BSO pretreatment compared to no pretreatment ([1]; BSO 1 mM 3 h, then probe 2 h): significantly weaker fluorescence
immunofluorescence with GSH or lipoic acid pretreatment compared to no pretreatment ([1]; GSH 100 μM 24 h or lipoic acid 1.8 mM 24 h, then probe 2 h): stronger immunofluorescence

COc1ccc(CC(NC(=O)OCc2ccc(N=[N+]=[N-])cc2)C(=O)NC2C(CO)OC(n3cnc4c(N(C)C)ncnc43)C2O)cc1 (stereo not shown) [H2S-Puro-1]
pseudo-first-order rate constant of the reaction with H2S [4]: 6.3e-05 s⁻¹
change in immunofluorescence intensity with cysteine or GSH incubation [1]: significant increase in immunofluorescence intensity
relative fluorescence intensity compared to cells treated by puromycin ([1]; 1 μM, 4 h incubation): around 5%
change of immunofluorescence intensity with incubation time ([1]; 1 μM, HeLa cells): time-dependent increase in green fluorescence intensity
immunofluorescence with H2S pretreatment relative to no pretreatment [1, 9]: 1.4 fold

COc1ccc2c(c1)Oc1cc(B3OC(C)(C)C(C)(C)O3)ccc1C21OC(=O)c2ccccc21 (stereo not shown) [PF2, Peroxyfluor-2]
cellular fluorescence (basal H2O2) ([5]; 10 μM for 0.5, 4 and 6 h, washed): negligible fluorescence
change in signal in response to Nox2 inhibition by gp91 Tat peptide ([5]; gp91 Tat peptide 100 μM 30 min, PF2 10 μM 4 h): failed to show statistically significant decreases in signal

COc1ccc(CC(NC(=O)OCc2ccc(B3OC(C)(C)C(C)(C)O3)cc2)C(=O)NC2C(CO)OC(n3cnc4c(N(C)C)ncnc43)C2O)cc1 (stereo not shown) [Peroxymycin-1]
stability in aqueous solution buffered to physiological pH ([6]; 0.3 mM probe, phosphate buffer (20 mM, pH 7.4)-methanol (2:1, v/v), 3 vol % DMSO, room temperature): good stability
puromycin generation in the absence of H2O2 ([6]; control experiment, LC-MS): negligible puromycin generation
pseudo-first-order rate constant of the reaction with H2O2 [7]: 0.001 s⁻¹
change in fluorescence intensity with paraquat co-incubation [1]: significant increases in fluorescence intensity
fluorescence intensity with H2O2 co-incubation relative to cells treated with probe only ([1]; 1 μM probe 4 h, H2O2 50 μM co-incubation for 2 h): 4.3 times
relative fluorescence intensity compared to cells treated by puromycin ([1]; 1 μM, 4 h incubation): 30.5%
green immunofluorescence at 0.5 h ([1]; 1 μM, HeLa cells): no significant green fluorescence
change of immunofluorescence intensity with incubation time ([1]; 1 μM, HeLa cells): increases in fluorescence intensity
change in fluorescence intensity with H2O2 pretreatment ([1]; then 1 μM compound 4 h): statistically significant increase in fluorescence intensity
change in fluorescence intensity with EGF stimulation [2]: statistically significant increase in fluorescence intensity
change in immunofluorescent signal with DPI incubation ([2]; EGF 100 ng/mL 40 min, DPI 5 μM, probe 1 μM 4 h): statistically significant decrease in immunofluorescent signal
effect of L-NAME on EGF-stimulated immunofluorescence ([2]; L-NAME 100 μM 25 min, EGF 100 ng/mL 40 min, probe 1 μM 4 h): does not block EGF-stimulated increases
immunofluorescence with gp91 Tat peptide compared to controls without inhibitor ([2]; gp91 Tat peptide 100 μM 30 min, probe 1 μM 4 h): markedly lower levels
order of fluorescence intensities normalized to puromycin-treated cells [8]: metastatic/invasive cancer cells>cancer cells>non-tumorigenic cells

COc1ccc(C[C@H](N)C(=O)N[C@H]2[C@@H](O)[C@H](n3cnc4c(N(C)C)ncnc43)O[C@@H]2CO)cc1 [puromycin]
change in immunofluorescence intensity with cysteine or GSH incubation [1]: negligible change in fluorescence intensity
change in fluorescence intensity with paraquat co-incubation [1]: no significant changes in fluorescence
time of saturation of green fluorescence ([1]; 1 μM, HeLa cells): 1 h
green immunofluorescence at 0.5 h ([1]; 1 μM, HeLa cells): strong green fluorescence
change in fluorescence intensity with H2O2 pretreatment ([1]; then 1 μM compound 4 h): lack of observed changes in fluorescence intensity
change in immunofluorescence intensity by H2S pretreatment [1, 9]: No significant change in immunofluorescence intensity
change in immunofluorescence intensity with GSH, lipoic acid or BSO pretreatment ([1]; puromycin control): no significant change in immunofluorescence intensity
change in fluorescence intensity with EGF stimulation [2]: do not show any significant changes in fluorescence intensity
